Reference: patent US12396984B2, “Managing microbial dysbiosis with temocillin” (Entasis Therapeutics, Inc., priority 2019, dated 2025)
Converted amounts (≈) assume the structure as drawn. Read-outs that look alike come from different tables or passages of the source.

Tests used:
[1] = test system: Firmicutes, Actinobacteria and Bacteroidetes; experiment: Agar-dilution antibacterial assay, human gut anaerobic commensals (panel summary); format: cell-based; conditions: for antibacterial activity against firmicutes, actinobacteria and bacteroidetes (normal GI flora): summary in words
Procedure: (§1) Representatives of human gut anaerobic commensals belonging to the 3 major phyla, Firmicutes, Actinobacteria and Bacteroidetes were tested in standard agar-dilution antibacterial assays run under anaerobic conditions. Firmicutes and Actinobacteria are part of the healthy human gut and their levels are compromised in Crohn's patients.

[2] = test system: ATCC 25986 Collinsella aerofaciens; experiment: Agar-dilution antibacterial assay under anaerobic conditions; format: cell-based; conditions: ATCC25986, Actinobacteria
Procedure: as §1

[3] = test system: ATCC 23272 Lactobacillus reuteri; experiment: as above; format: cell-based; conditions: Limosilactobacillus reuteri, ATCC23272, Firmicutes
Procedure: as §1

[4] = test system: MMX 3478 Bacteroides fragilis; experiment: as above; format: cell-based; conditions: Bacteroidetes
Procedure: as §1

[5] = test system: MMX 6660 Streptococcus intermedius; experiment: as above; format: cell-based; conditions: Firmicutes
Procedure: as §1

[6] = test system: MMX 9711 Bacteroides salyersiae; experiment: as above; format: cell-based; conditions: Bacteroidetes
Procedure: as §1

[7] = test system: ATCC 15702 Bifidobacterium infantis; experiment: as above; format: cell-based; conditions: ATCC15702, Actinobacteria
Procedure: as §1

[8] = test system: MMX 10069 Bifidobacterium adolescentis; experiment: as above; format: cell-based; conditions: Actinobacteria
Procedure: as §1

[9] = test system: MMX 1722 Lactobacillus casei; experiment: as above; format: cell-based; conditions: Lacticaseibacillus casei, Firmicutes
Procedure: as §1

[10] = test system: MMX 9797 Clostridium innocuum; experiment: as above; format: cell-based; conditions: Firmicutes
Procedure: as §1

[11] = test system: ATCC 12290 Bacteroides thetaiotaomicron; experiment: microbe, parasite or virus in culture; format: cell-based
Procedure: as §1

Crohn's AIEC Isolates [12] = experiment: microbe, parasite or virus in culture; conditions: Escherichia coli
gut microbiome = experiment: Post-treatment measurement of microbiome health (16S rRNA gene sequencing of fecal pellets); format: in vivo, mice; conditions: 30 mg/kg oral gavage once a day for 3 days, p<0.05
Procedure: Mice were dosed once a day for 3 consecutive days post AIEC stable GI colonization. Fecal pellets from four mice (1-2 per mouse) were pooled and subjected to bacterial DNA enrichment and analyzed using the Illumina MiSeq 2. Bacterial abundance and diversity was quantified using 16S rRNA gene sequencing data, analyzed and compared with naïve mice.

Crohn's AIEC Isolates [13] = conditions: AIEC Crohn's clinical isolates
[14] = test system: AIEC strain (Phylotype D); experiment: GI AIEC decolonization murine model; format: in vivo, C57BL/6J mice; conditions: 30 mg/kg by oral gavage, FIG. 1
Procedure: A GI AIEC decolonization murine model studies were performed using a previously published murine model as the basis and run in accordance with animal ethical guidelines at an external contract research organization. Healthy C57BL/6J mice were first administered streptomycin by oral gavage. An AIEC strain (Phylotype D) was then administered at approximately 1-5×10^6 cfu per mouse by oral gavage and fecal pellets were enumerated for AIEC burden. Upon stable colonization (usually after 48 h post-AIEC administration), mice were sorted into three groups of 4 animals each. […] The third group was the control and was given an equivalent volume of sterile saline by oral gavage. Fecal pellets were recovered at various times as indicated on the X-axis of FIG. 1 and AIEC burden quantified by dilution and plating. Two successive fecal pellets were recovered from each mouse per group to sufficiently power the data.

[15] = ATCC12290, Bacteroidetes, anaerobic agar dilution, read-out: MIC

SMILES	antibacterial activity against firmicutes, actinobacteria and bacteroidetes (normal GI flora) [1]	MIC [2] [µg/mL]	MIC [3] [µg/mL]	MIC [4] [µg/mL]	MIC [5] [µg/mL]	MIC [6] [µg/mL]	MIC [7] [µg/mL]	MIC [8] [µg/mL]	MIC [9] [µg/mL]	MIC [10] [µg/mL]	MIC [11, 15] [µg/mL]	further results
O=C(O)c1cn(C2CC2)c2cc(N3CCNCC3)c(F)cc2c1=O [Ciprofloxacin]	broad potent antibacterial activities	0.5 (≈ 1.51 µM)	32 (≈ 96.6 µM)	16 (≈ 48.3 µM)	1 (≈ 3.02 µM)	16 (≈ 48.3 µM)	4 (≈ 12.1 µM)	32 (≈ 96.6 µM)	1 (≈ 3.02 µM)	–	–	–
Cc1ncc([N+](=O)[O-])n1CCO [Metronidazole]	broad potent antibacterial activities	1 (≈ 5.84 µM)	> 64	8 (≈ 46.7 µM)	> 64	2 (≈ 11.7 µM)	8 (≈ 46.7 µM)	8 (≈ 46.7 µM)	> 64	1 (≈ 5.84 µM)	–	MIC ([11]; ATCC12290): 0.25 µg/mL (≈ 1.46 µM)
CO[C@H]1/C=C/O[C@@]2(C)Oc3c(C)c(O)c4c(O)c(c5c(nc6cc(C)ccn65)c4c3C2=O)NC(=O)/C(C)=C\C=C\[C@H](C)[C@H](O)[C@@H](C)[C@@H](O)[C@@H](C)[C@H](OC(C)=O)[C@@H]1C [Rifaximin]	broad potent antibacterial activities	≤ 0.03	0.06 (≈ 0.0763 µM)	0.25 (≈ 0.318 µM)	0.5 (≈ 0.636 µM)	0.5 (≈ 0.636 µM)	0.125 (≈ 0.159 µM)	0.5 (≈ 0.636 µM)	0.25 (≈ 0.318 µM)	> 32	≤ 0.03	–
CO[C@@]1(NC(=O)C(C(=O)O)c2ccsc2)C(=O)N2[C@@H](C(=O)O)C(C)(C)S[C@@H]21 (stereo partly drawn) [Temocillin, temocillin]	little or no effect on the normal GI flora	> 256	> 256	256 (≈ 618 µM)	> 256	> 256	> 256	> 256	> 256	> 256	> 256	MIC50 (Crohn's AIEC Isolates [12]): 4 to 8 µg/mL (≈ 9.65 to 19.3 µM); MIC (Crohn's AIEC Isolates [12]; Crohn's AIEC isolate #14): 16 µg/mL (≈ 38.6 µM); MIC (Crohn's AIEC Isolates [12]; Crohn's AIEC isolate #32): 4 µg/mL (≈ 9.65 µM); MIC (Crohn's AIEC Isolates [12]; Crohn's AIEC isolate #35): 16 µg/mL (≈ 38.6 µM); MIC (Crohn's AIEC Isolates [12]; Crohn's AIEC isolate #40): 8 µg/mL (≈ 19.3 µM); MIC (Crohn's AIEC Isolates [12]; Crohn's AIEC isolate #49): 4 µg/mL (≈ 9.65 µM); MIC (Crohn's AIEC Isolates [12]; Crohn's AIEC isolate #51): 8 µg/mL (≈ 19.3 µM); richness (number of OTUs) (gut microbiome; FIG. 2A): comparable to the untreated (naive) mice and were higher than ciprofloxacin; diversity (Shannon index) (gut microbiome; FIG. 2B): comparable to the untreated (naive) mice and were higher than ciprofloxacin; MIC ([1]; certain firmicutes, actinobacteria and bacteroidetes): > 256 µg/mL; antibacterial activity vs. ciprofloxacin resistant isolates (Crohn's AIEC Isolates [13]): maintains antibacterial activity vs. ciprofloxacin resistant isolates; AIEC burden in feces (log10 bacterial burden) [14]: effective at lowering AIEC burden in the murine GI tract and performed as well as the current standard-of-care antibiotic, ciprofloxacin; AIEC burden in feces (log10 bacterial burden) ([14]; listed as temocillin): effective at lowering the AIEC burden in the murine GI tract; AIEC burden after cessation of treatment (rebound) ([14]; post-treatment): effective at maintaining the AIEC burden low for days after cessation of treatment; time AIEC bacterial growth remained low after treatment ([14]; post-treatment): at least 7 days
